According to publication PMC7956430, “Cytotoxicity and Apoptosis Effects of Curcumin Analogue (2E,6E)-2,6-Bis(2,3-Dimethoxybenzylidine) Cyclohexanone (DMCH) on Human Colon Cancer Cells HT29 and SW620 In Vitro” (Molecules, 2021):
Where two headings read alike, the source gives them in different places. Blank lines part the entries; values can stand above or below the compound they belong to.

Tests used:
HT29 [1] = assay: MTT cell viability assay; assay type: cell-based; conditions: Homo sapiens, HT-29
Protocol: (§1) Both SW620 and HT29 cells were grown in an incubator at 37 °C under 5% CO2 condition with their respective media. After the cells were harvested, they were counted and seeded at 1 × 10^5 cells per well in a 96-well plate overnight before being treated with DMCH. The following day, cells were treated with various concentrations of DMCH. […] Following incubation for the designated time period, 20 μL of (5 mg/mL) MTT 3-[4, 5-dimethylthiazol-2-yl]-2, 5 diphenyltetrazolium bromide (Merck, Kenilworth, NJ, USA) reagent was added into each well and then cells were incubated again for another 3 to 4 h. Next, the solution was removed and 100 μL of dimethyl sulfoxide (DMSO) was added into the wells. Afterward, the plate was read at 575 nm using a microtiter plate reader (μQuant, Bio-Tek Instrument, Winooski, VT, USA). The results were analysed as the percentage proliferation of the cells regarding the concentration of the sample treated. The following formula was used to determine the percentage of viable cells:
(§2) Percentage of viability (%) = (Absorbance of sample at 570 nm)/(Absorbance of control at 570 nm) × 100.

SW620 [2] = assay: MTT cell viability assay; assay type: cell-based; conditions: Homo sapiens, SW-620
Protocol: as §1, §2

Splenocyctes = assay: MTT cell viability assay on normal cells; assay type: cell-based; conditions: splenocytes
HT29 [3] = assay: Annexin V/FITC assay (flow cytometry); assay type: cell-based, human; conditions: HT29, 72 h, DMCH at IC50
Protocol: (§3) The apoptosis effect on HT29 and SW620 cells was studied using an Annexin V fluorescence kit (BD Pharmingen, San Diego, CA, USA) according to the manufacturer’s instructions without any modifications. Briefly, cells were seeded for 24 h at a density of 2.0 × 10^5 cells per well in a 6-well plate. Then, the seeded cells were treated with the designated concentrations for 48 h and 72 h. After the 48 h (or 72 h) of treatment, the treated cells were harvested and collected as a pellet. Next, the pellet was resuspended in 400 μL of binding buffer and stained with 5 μL of FITC-Annexin-V and 5 μL of PI provided in the kit. Afterward, the cells were analysed using a Novocyctes flow cytometer (ACEA Biosciences Inc., San Diego, CA, USA).

SW620 [4] = assay: Annexin V/FITC assay (flow cytometry); assay type: cell-based, human; conditions: SW620, 72 h, DMCH at IC50
Protocol: as §3

HT29 [5] = assay: Cell cycle analysis by flow cytometry; assay type: cell-based, human; conditions: HT29, 72 h
Protocol: (§4) The effect of the DMCH sample on the cell cycle of HT29 and SW620 cells was investigated using flow cytometry cell cycle analysis. Cell cycle assay was carried out using the CycleTEST Plus DNA Reagent Kit according to the instructions (BD Pharmingen, San Diego, CA, USA). The cells were seeded at a density of 2.0 × 10^5 cells/well overnight. Then, cells were treated with different dosages of DMCH based on the concentration results of the MTT assay for 48 h and 72 h. After the treatment, cells were collected, and the pellet was resuspended in 200 μL of trypsin (solution A) and RNAse (solution B) for 10 min each followed by 250 μL of propidium iodide (solution C) for 15 min. After that, flow cytometric analysis was performed within 3 h using a Novocytes flow cytometer (ACEA Biosciences Inc., San Diego, CA, USA).

SW620 [6] = assay: Cell cycle analysis by flow cytometry; assay type: cell-based, human
Protocol: as §4

[7] = test system: apoptosis-related proteins in HT29; assay: Human apoptosis proteome profiler; assay type: cell-based; conditions: HT29, DMCH (IC50) for 48 h
Protocol: (§5) Colon cancer cell lines SW620 and HT29 that had been treated with DMCH for 48 h were investigated for the expression profiles of apoptosis-related proteins. This was conducted using the Human Apoptosis Array Kit (R&D Systems, Minneapolis, MN, USA). Firstly, the proteins from both cells were extracted using 600 µL of RIPA buffer (50 mM Tris-HCl, 150 mM NaCl, 1.0% TritonX-100, 0.5% sodium deoxycholate, 0.1% SDS) supplemented with 10 mg of pre-made protease inhibitor cocktails (Roche, Mississauga, ON, Canada). After that, the proteins were quantified using the Bradford assay (Sigma, St. Louis, MO, USA). Then, membranes were blocked by blocking buffer for an hour. At the same time, the proteins were prepared with the addition of 1 mL Lysis Buffer 17 to the protein lysate. The prepared protein was loaded onto the membrane and was incubated at 4 °C overnight. The following day, the membranes were washed three times with 20 mL of wash buffer provided in the kit. Next, the membrane was transferred into a 4-well multi-dish that contains the reconstituted detection antibody cocktails, and it was incubated for an hour on a shaker. Then, the membrane was again washed with a washing buffer three times. Two millilitres of Streptavidin-HRP was added onto the membrane followed by incubation for 30 min. Then, the membrane was washed three times. Afterward, the membrane was loaded with 1.0 mL of Chemi Reagent Mix and then the membrane was scanned using ChemiDoc XRS (Bio-Rad, Hercules, CA, USA).

[8] = test system: apoptosis-related proteins in SW620; assay: Human apoptosis proteome profiler; assay type: cell-based; conditions: SW620, DMCH (IC50) for 48 h
Protocol: as §5

HT29 [9] = assay: Acridine orange/propidium iodide (AO/PI) double staining assay; assay type: cell-based, human; conditions: HT29, DMCH at IC50, as incubation time increased (48 h, 72 h), p < 0.05
Protocol: (§6) Acridine orange/propidium iodide (AO/PI) double staining assay was performed on colon cancer cell lines to determine the mode of cell death microscopically. HT29 and SW620 cell lines were seeded in a 6-well plate at a density of 2 × 10^5 cells/well. Then, cells were treated with DMCH sample according to 48 h and 72 h concentrations. The treatment-free culture was used as a negative control, and cells were detached and collected at the end of each incubation time. Then, cells were washed with PBS and incubated with a 1:1 ratio of acridine orange (10 µg/mL) and propidium iodide (10 µg/mL). An amount of 10 µL of incubated suspension cells was placed on a slide and viewed immediately under a fluorescent microscope (Nikon FC-35DX, Nikon, Tokyo, Japan).

SW620 [10] = assay: as above; assay type: cell-based, human; conditions: SW620, DMCH at IC50, as incubation time increased (48 h, 72 h), p < 0.05
Protocol: as §6

[11] = Splenocyte, 24 h, read-out: IC50
[12] = Splenocyte, 48 h, read-out: IC50
[13] = Splenocyte, 72 h, read-out: IC50

IC50 (HT29 [1]; HT29, 24 h, read-out: IC50): > 30 µM | IC50 (HT29 [1]; HT29, 48 h, read-out: IC50): 9.8 ± 0.553 µM | IC50 (HT29 [1]; HT29, 72 h, read-out: IC50): 8.2 ± 0.761 µM | IC50 (HT29 [1]; HT29, as printed in abstract, time not stated, read-out: inhibitory concentration (IC50)): 9.8 ± 0.55 µg/mL | IC50 (SW620 [2]; SW620, 24 h, read-out: IC50): > 30 µM | IC50 (SW620 [2]; SW620, 48 h, read-out: IC50): 7.5 ± 1.19 µM | IC50 (SW620 [2]; SW620, 72 h, read-out: IC50): 5 ± 0.157 µM | IC50 (SW620 [2]; SW620, as printed in abstract, time not stated, read-out: inhibitory concentration (IC50)): 7.5 ± 1.19 µg/mL
Structure (SMILES): COc1cccc(/C=C2\CCC/C(=C\c3cccc(OC)c3OC)C2=O)c1OC [DMCH, (2E,6E)-2,6-bis(2,3-dimethoxybenzylidene) cyclohexanone]
IC50 (Splenocyctes; [11]): > 30 µM | IC50 (Splenocyctes; [12]): > 30 µM | IC50 (Splenocyctes; [13]): > 30 µM | IC50 (Splenocyctes; 24 h): no IC50 values observed | IC50 (Splenocyctes; 48 h): no IC50 values observed | IC50 (Splenocyctes; 72 h): no IC50 values observed | early and late apoptotic/necrotic cells (HT29 [3]): 8.83 ± 0.42% | early and late apoptotic/necrotic cells (SW620 [4]): 15.70 ± 1.03% | cells in sub-G0/G1 phase (HT29 [5]): 10.96± 0.94% | cells in sub-G0/G1 phase (SW620 [6]; SW620, 48 h): 0.15 ± 0.05% | cells in sub-G0/G1 phase (SW620 [6]; SW620, 72 h): 73.24 ± 1.65% | Bad Regulation [7]: Up | Bax Regulation [7]: Up | Bcl x Regulation [7]: Down | Cytochrome c Regulation [7]: Up | Livin Regulation [7]: Down | Pro caspase 3 Regulation [7]: Up | SMAC/Diablo Regulation [7]: Up | Bad Regulation [8]: Up | Bax Regulation [8]: Up | Bcl x Regulation [8]: Up | Cytochrome c Regulation [8]: Down | Livin Regulation [8]: Down | Pro caspase 3 Regulation [8]: Down | SMAC/Diablo Regulation [8]: Down | Cytochrome c Relative Intensity (Fold Change) ([8]; vs control): −0.900 ± 0.006 | Livin Relative Intensity (Fold Change) ([8]; vs control): −0.900 ± 0.040 | SMAC/Diablo Relative Intensity (Fold Change) ([8]; vs control): −0.900 ± 0.070 | proportion of cells that exhibited early apoptosis and late apoptosis (HT29 [9]): significantly higher | proportion of cells that exhibited early apoptosis and late apoptosis (SW620 [10]): significantly higher

IC50 (HT29 [1]; HT29, 24 h, read-out: IC50): > 30 µM | IC50 (HT29 [1]; HT29, 48 h, read-out: IC50): 26.7 ± 1.53 µM | IC50 (HT29 [1]; HT29, 72 h, read-out: IC50): 20.7 ± 1.16 µM | IC50 (SW620 [2]; SW620, 24 h, read-out: IC50): > 30 µM | IC50 (SW620 [2]; SW620, 48 h, read-out: IC50): 18.6 ± 0.321 µM | IC50 (SW620 [2]; SW620, 72 h, read-out: IC50): 15.7 ± 1.52 µM
Structure (SMILES): COc1cc(/C=C/C(=O)CC(=O)/C=C/c2ccc(O)c(OC)c2)ccc1O [curcumin]
IC50 (Splenocyctes; [11]): > 30 µM | IC50 (Splenocyctes; [12]): > 30 µM | IC50 (Splenocyctes; [13]): > 30 µM
